# Test results reported in US6566508B2, “Fluorogenic compounds and uses therefor” (3M Innovative Properties Company, priority 2000, dated 2003).
# Where two headings read alike, the source gives them in different places.
# Legend:
# [1] = test system: E. coli P18 cells; assay: Escherichia coli detection with β-TUGal in growth media (microwell fluorescence); type: cell-based
# Description: E. coli is known to secrete extracellular galactosidase. In a selective growth media, E. coli can be detected based on development of this enzyme activity. Varying concentrations of 3-(2-thienyl) umbelliferyl-β-D-galactoside (β-TUGal) indicator were assayed against three known concentrations of E. coli P 18 cells: ca 10^3, 10^2, and 10 cells/mL. Viable cell counts were determined using Petrifilm (3M, St. Paul, Minn.). Adjusting for the dilutions used in the fluorescence detection experiments, cell counts were approximately 56, 5.6, and 0.56 cells per well. A fresh overnight culture of E. coli P18 was prepared and grown in tryptic soy broth (TSB, Sigma Chemical Co., St. Louis, Mo.). Ten μL of this stock culture was diluted into […] of Butterfields phosphate buffer (Hardy Diagnostics, Santa Maria, Calif.) to give a 10,000 fold dilution. Next, 10 mL of this new solution was diluted into 90 mL of phosphate buffer to give an approximate E. coli concentration of 10^3 cells/mL. Two more dilutions in this same manner yielded cultures of 10^2 and 10 cells/mL. […] Each of the three lowest dilutions of the E. coli culture were counted on Petrifilm by plating 1 mL of each and growing overnight at 37° C.
# [2] = target: β-galactosidase from E. coli (Escherichia coli, UniProt P00722); details: pH 7.6, 37° C., excitation 450 nm, 1, 10 and 20 μM substrate
# β-galactosidase from E. coli, sequence (P00722 2-1024): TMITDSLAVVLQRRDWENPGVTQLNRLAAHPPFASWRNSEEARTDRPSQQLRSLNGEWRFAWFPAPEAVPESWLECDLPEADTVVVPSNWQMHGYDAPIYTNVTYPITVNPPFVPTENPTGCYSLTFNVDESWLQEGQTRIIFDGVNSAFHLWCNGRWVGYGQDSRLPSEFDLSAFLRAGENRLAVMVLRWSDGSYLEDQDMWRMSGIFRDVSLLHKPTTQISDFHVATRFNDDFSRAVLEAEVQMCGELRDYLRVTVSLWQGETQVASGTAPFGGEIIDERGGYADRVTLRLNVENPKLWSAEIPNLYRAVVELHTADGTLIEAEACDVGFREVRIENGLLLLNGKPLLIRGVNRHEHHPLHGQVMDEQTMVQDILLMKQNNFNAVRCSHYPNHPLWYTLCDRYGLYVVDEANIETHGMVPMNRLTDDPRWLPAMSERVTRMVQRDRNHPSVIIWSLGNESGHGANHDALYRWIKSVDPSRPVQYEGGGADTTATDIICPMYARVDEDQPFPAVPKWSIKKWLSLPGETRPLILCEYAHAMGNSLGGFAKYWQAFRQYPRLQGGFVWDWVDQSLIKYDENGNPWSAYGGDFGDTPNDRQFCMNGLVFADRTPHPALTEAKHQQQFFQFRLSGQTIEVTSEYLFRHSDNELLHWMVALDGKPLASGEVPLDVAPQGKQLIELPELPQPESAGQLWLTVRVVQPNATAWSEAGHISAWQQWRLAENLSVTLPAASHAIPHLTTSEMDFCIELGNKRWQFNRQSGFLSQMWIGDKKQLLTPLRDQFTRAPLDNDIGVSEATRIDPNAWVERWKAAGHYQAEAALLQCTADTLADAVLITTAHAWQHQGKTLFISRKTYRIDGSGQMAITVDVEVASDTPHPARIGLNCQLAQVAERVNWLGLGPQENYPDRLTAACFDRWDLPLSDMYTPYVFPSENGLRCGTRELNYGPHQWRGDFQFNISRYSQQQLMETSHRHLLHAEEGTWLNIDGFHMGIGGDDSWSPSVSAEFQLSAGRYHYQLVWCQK
# Description: β-Galactosidase activity was continuously assayed at pH 7.6 in a fluorometer using front face detection.
# Samples were excited at 450 nm and emission was monitored at 502 nm.
# Assay solutions were prepared as follows: a 100 mM sodium phosphate solution, pH 7.6, a 30 mM MgCl2 solution, a solution of β-TUGal (3.08×10^−2 M, Example 1) in N,N-dimethyl formamide (DMF), and a solution of β-galactosidase (1.0 units/μl) from E. coli (Grade VIII, Sigma Chemical Co., St. Louis, Mo.) reconstituted in 100 mM sodium phosphate, pH 7.3.
# All reagents were kept on ice until their time of use. From them, two solutions were prepared: the substrate solution and the enzyme solution. The substrate solution was prepared in a sample vial by further dilution of the β-TUGal solution in DMF. The preparations gave final concentrations of 1, 10, and 20 μM β-TUGal. In a separate cuvette, the phosphate buffer was combined with 150 μL MgCl2 solution and the appropriate amount of reconstituted β-galactosidase to make the enzyme solution. This was then incubated for seven minutes at 37° C. Following incubation, the substrate solution was added and the fluorescence was measured by front face detection over a 10-minute period at 37° C.
# [3] = pKa determination from fluorescence emission as a function of pH
# Description: Fifty microliters of this solution were then diluted to 4.00 mL in a series of 50 mM sodium phosphate buffer solutions, each having a different pH, corresponding to the traces of FIG. 7a, as shown in Table 1. The final concentration of TU was 3.08×10^−4 M.
# [4] = Fluorescence excitation and emission spectra; details: for λem (nm) / λex (nm): anion of hydrolysis product
# Description: Fluorescence measurements were made using a SPEX Fluorolog™ Series spectrofluorimeter (SPEX Industries, Inc., Edison, N.J.).
# By using an excitation source filter centered in this spectral window and an emission source filter centered between 480 nm and 600 nm, the formation of TU anion can be measured as a product of the enzymatic cleavage of β-TUGlc without interference from β-TUGlc fluorescence.
# [5] = test system: Bacillus subtilis spores; assay: LED-based monitoring of bacterial cleavage of β-TUGlc; type: cell-based
# Description: LED 110, having a maximum emission at 475 nm (Model HP HLMP CB15, Hewlett Packard Instruments, Palo Alto, Calif.), was driven in a pulsed mode with a 10% duty cycle by computer-controlled pulse generator 132 (Hewlett Packard Instruments). Light from LED 110 was introduced into filter block 130 (Model I3, Leica Microsystems, Inc., Deerfield, Ill.), comprising excitation filter 112 (model BP, 450-490 nm), dichroic mirror 114 (model RKP, reflection short pass at 510 nm), and emission filter 120 (model LP, 515 nm) and focused on an illumination region of sample 118 by objective lens 116. The illumination region was designed to accommodate a solution sample, a microfluidic chip, or other sample that might contain β-TUGlc to be enzymatically cleaved. A 10× objective was used for large detection zones (e.g., solution cuvettes, microwell arrays) and a 40× objective was used for small samples (e.g., 50 μm wide channels in microfluidic chips). Both objective lenses were obtained from Melles Griot, Irvine, Calif. […] Return fluorescence was passed through objective lens 116, reflected from dichroic mirror 114 through emission filter 120 and iris diaphragm 122, and detected with photomultiplier tube 124 (PMT Model H5783, Hamamatsu Corp., Bridgewater, N.J.) having an adjustable gain between 0 and 70,000 Amperes/Watt. PMT module 124 was powered by a 15 volt power supply (not shown). […]
# [6] = Autoclave stability of β-TUGlc; type: physicochemical; details: 0.1 g/mL in B. subtilis growth media and pH 7.6 PBS; 20 minutes at 121° C., then 15 minutes at 132° C.
# Description: Solutions of 0.1 g/mL of β-TUGlc (Example 1) in B. subtilis growth media and in pH 7.6 phosphate buffered saline (PBS) were heated in an autoclave for 20 minutes at 121° C. Fluorescence spectrum on excitation at 362 nm was obtained. The sample was heated a second time in an autoclave for 15 minutes at 132° C., and the fluorescence spectrum was obtained. […] Therefore, β-TUGlc was sufficiently robust to be used in a sterilization indicator format such as a Attest™ Rapid Readout Biological Indicator (3M Company, St. Paul, Minn.), wherein the fluorogenic enzyme substrate and the biological spore are both exposed to the conditions within the steam sterilizer.
# [7] = test system: B. stearothermophilus spores; assay: Bacillus stearothermophilus detection with β-TUGlc; type: cell-based
# Description: B. stearothermophilus spores (commercially available as ATCC 7953 or ATCC 8005 from American Type Culture Collection, Rockville, Md.) were diluted in growth media to a concentration of 1.3×10^8 cells per mL. Dilutions to 10^7 […] and 10^6 cells/mL were prepared using 50 mM sodium phosphate, pH 7.6. Aliquots of these solutions were incubated with β-TUGlc (2×10^−6 M) at 56° C. in a fluorimeter and fluorescence was monitored with excitation at 450 nm and emission at 502 nm. […] In a similar manner, spore solutions that had been steam-sterilized for 20 minutes at 121° C. were mixed with the β-TUGlc. […] The growth medium for this Example was prepared by dissolution of trypticase peptone (5 g), phytone peptone (12 g) and L-alanine (17 mg) in 1 liter of water.
# [8] = test system: β-glucosidase; assay: LED-based monitoring of enzymatic cleavage of β-TUGlc; type: biochemical
# Description: A 10× objective was used for large detection zones (e.g., solution cuvettes, microwell arrays) and a 40× objective was used for small samples (e.g., 50 μm wide channels in microfluidic chips). […] (Model #04 OAS 016; 0.65 N.A.).
# Two stock solutions of β-glucosidase (Sigma Chemical Co., St. Louis, Mo.) were prepared in pH 7.6 phosphate buffered saline (PBS): (a) 1 enzyme unit/20 μL and (b) 1 enzyme unit/400 μL, where one enzyme unit liberates 1 μMole of product per minute when salicin is the substrate. Required amounts of the stock solutions were diluted with 980 μL of PBS to create samples of 0.5, 0.125, 0.0625, 0.025, and 0.0125 units per mL, represented in FIG. 17a by traces 1 through 5, respectively. These samples were incubated for 7 minutes at 37° C., then treated with 5 μL of 24.6 mM β-TUGlc in DMF (Example 1) such that the initial concentration of β-TUGlc was 123 μM.
# Fluorescence resulting from cleavage of the substrate was monitored in a thermostatted cuvette at 37 ° C. using the testbed described in Example 9 with a PMT gain setting of 822 Amperes/Watt. Fluorescent response for each enzyme concentration was monitored for three minutes. FIG. 17b is a plot of the initial rates of reaction obtained from the data in FIG. 17a.
# [9] = test system: β-glucosidase; assay: Hand-held LED probe, cleavage of β-TUGlc; type: biochemical; details: 0.125 units β-glucosidase, pH 7.6 PBS, GaN LED
# Description: A solution of 100 μL of 1.0 mM β-TUGlc (Example 1) in DMF was combined with 840 μL of 7.6 pH PBS in a 1 mL cuvette, and the volume was adjusted to 990 μL by the addition of […] of 30 mM aq. MgCl. The mixture was irradiated using a GaN LED (λmax=480 nm, Nichia Chemical Industries, Ltd., Anan, J P) mounted in a compact, hand-held probe, and 10 μL of β-glucosidase (0.125 units in pH 7.6 PBS) was added. Within ten seconds, a strong fluorescent signal could be seen in the cuvette.
# [10] = test system: B. stearothermophilus α-glucosidase; assay: Enzymatic hydrolysis of α-TUGlc; type: biochemical; details: 60° C., growth media, 10 μL of 246 μM substrate, ex 450 nm, em 502 nm
# Description: Commercially prepared B. stearothermophilus α-glucosidase (Sigma Chemical Company, St. Louis, Mo.) was used as 100 units per mL (1 unit produces 1 μmole of product per minute). 10 μL of this solution was added to […] of growth media to simulate the actual environment of the bacterial spores. This enzyme and media mixture was then incubated for 7 minutes at 60° C., at which time 10 μL of 246 μM α-TUGlc (prepared as described in Example 4) was added. The reaction was monitored on the SPEX Fluorolog™ spectrofluorimeter by exciting at 450 nm with emission at 502 nm. […] Variation in fluorescence may be due to variation in activity of the bacterial enzyme per mL of mixture. The assays of examples 7 and 8 confirmed the presence of the α-glucoside derivative.
# [11] = test system: B. stearothermophilus spores; assay: Bacterial hydrolysis of α-TUGlc; type: cell-based, Bacillus stearothermophilus; details: spores 1×10^8 cells/mL diluted in growth media, 56° C., 10 μL of 246 μM substrate
# Description: 100 μL of B. stearothermophilus spores (initial cone. 1×10^8 cells/mL) was added to 890 μL of growth media and the mixture was incubated at 56° C. for 7 minutes. […] This increase in fluorescence indicates enzymatic cleavage of the substrate. However, because the spores have both β- and α-glucosidase activity, the stereochemistry of the substrate can not be judged.
# [12] = 5 μM solution in phosphate buffered saline at pH 7.6
# [13] = 5 μM solution in 50 mM PBS at pH 10.0
smiles,measurement,setting,value
"O=c1oc2cc(O[C@@H]3O[C@H](CO)[C@H](O)[C@H](O)[C@H]3O)ccc2cc1-c1cccs1 [β-TUGal, 3-(2-thienyl)-umbelliferyl-7-β-D-galactoside]",positive results,[1]; 0.56 cell concentration,3 of the 10 concentrations showed positive results
same,fastest time to positive result,"[1]; 56 cells per well, 62 μM indicator",6.5 h
same,fluorescence at 502 nm on addition of β-galactosidase,[2],rapid increase in fluorescence
O=c1oc2cc(O)ccc2cc1-c1nc2ccccc2[nH]1 [3-(2-benzoimidazolyl) umbelliferyl anion],pKa,[3],7.01
same,λem (nm),[4],477 nm
same,λex (nm),[4],420 nm
O=c1oc2cc(O)ccc2cc1-c1nc2ccccc2o1 [3-(2-benzoxazolyl) umbelliferyl anion],pKa,[3],6.56
same,λem (nm),[4],471 nm
same,λex (nm),[4],425 nm
"O=c1oc2cc(O[C@@H]3O[C@H](CO)[C@@H](O)[C@H](O)[C@H]3O)ccc2cc1-c1cccs1 [β-TUGlc, 3-(2-thienyl)-umbelliferyl-7-β-D-glucoside]",emission maximum,[4]; [12],~460 nm
same,excitation maximum,[4]; [12],~380 nm
same,time to presumptive identification of B. subtilis after mixing,"[5]; 10^8 spores/mL, 37° C., PMT gain 88 Amperes/Watt",less than five
same,fluorescent signal with steam-sterilized control,[5]; steam-sterilized at 121° C. for 20 minutes,no time-dependent changes in the fluorescent signal
same,fraction hydrolyzed during each autoclave cycle,[6],approximately 10%
same,time until fluorescence changes were evident,"[7]; 10^7 and 10^6 cells/mL, 2×10^−6 M substrate, 56° C., ex 450 nm, em 502 nm",less than 10 minutes
same,cleavage by steam-sterilized spore solutions,[7]; spores steam-sterilized 20 minutes at 121° C.,no enzymatic cleavage reaction
same,"time to significant, detectable fluorescent signal","[8]; 0.5 enzyme units, 123 μM substrate, 37° C., pH 7.6 PBS",less than 5 seconds
same,fluorescent signal with steam-sterilized enzyme,[8]; enzyme solutions steam-sterilized at 121° C. for 20 minutes,no time-dependent changes in the fluorescent signal
same,time to strong fluorescent signal,[9],ten
O=c1oc2cc(O)ccc2cc1-c1nc2ccccc2s1 [3-(2-benzothiazolyl) umbelliferyl anion],pKa,[3],6.79
same,λem (nm),[4],488 nm
same,λex (nm),[4],447 nm
O=c1oc2cc(OC3OC(CO)C(O)C(O)C3O)ccc2cc1-c1cccs1 (stereo not drawn) [α-TUGlc],time at which Vmax appears,[10],about 2 minutes
same,fluorescence at 502 nm after substrate addition,[11],Fluorescence increased rapidly in the first 20 minutes
"O=c1oc2cc(O)ccc2cc1-c1cccs1 [3-(2-thienyl) umbelliferyl anion, 3-(2-thienyl) umbelliferone]",pKa,[3]; umbelliferone hydrolysis product,7.57±0.03
same,emission maximum,[4]; [13],~502 nm
same,excitation maximum,[4]; [13],~410 nm
same,λem (nm),[4],502 nm
same,λex (nm),[4],410 nm
